# Where two headings read alike, the source gives them in different places. Marks after values point to notes of the source that are not given here.
# Key:
# NCI/ADR-RES = assay: In-Vitro Testing SRB panel: Breast Cancer; format: cell-based; settings: 48 h
# SNB-19 = assay: In-Vitro Testing SRB panel: CNS Cancer; format: cell-based; settings: SNB-19, 48 h
# MDA-N = assay: In-Vitro Testing SRB panel: Breast Cancer; format: cell-based; settings: 48 h
# [1] = tested on: H209 small lung cell carcinoma; assay: Mouse xenograft tumor growth; format: in vivo, SCID mice
# [2] = Preliminary toxicology, subcutaneous injection for 14 days; format: in vivo, CD-1 female mice; settings: CD-1 female mice; 80 mg/kg/day s.c. 14 days
# Protocol: The toxicological effects of CLT, and compounds 28, 30 and 31 were tested in CD-1 female mice. A dose of 80 mg/kg/day was given to each mouse via subcutaneous injection for a period of 14 days. Preliminary toxicological data was determined by measuring body weight, gross pathology of organs blood chemistry and histology. The vehicle used was DMF 12%+2% Tween 20 88%.
# TK-10 = assay: In-Vitro Testing SRB panel: Renal Cancer; format: cell-based; settings: TK-10, 48 h
# ERVX = settings: 48 h
# RPMI-8226 = assay: In-Vitro Testing SRB panel: Leukemia; format: cell-based; settings: RPMI-8226, 48 h
# SF-295 = assay: In-Vitro Testing SRB panel: CNS Cancer; format: cell-based; settings: SF-295, 48 h
# [3] = Homo sapiens, read-out: LC50 (the source's name)
smiles,measurement,setting,value
"O=C(c1ccc([N+](=O)[O-])cc1)N1Cc2ccccc2C(c2ccccc2Cl)c2ccccc21 (stereo not drawn) [Compound 28, N-(4′-Nitrobenzoyl)-11-(2′-chlorophenyl)-5,6-dihydro-11H-dibenz[b,e]azepine]",TGI,NCI/ADR-RES,>1.00E−04 Molar
same,GI50,NCI/ADR-RES; Homo sapiens,3.22 µM
same,CC50,NCI/ADR-RES; [3],> 100 µM
same,Percent Growth,NCI/ADR-RES; log10 conc −4.0 Molar,20%
same,Percent Growth,NCI/ADR-RES; log10 conc −5.0 Molar,27%
same,Percent Growth,NCI/ADR-RES; log10 conc −6.0 Molar,74%
same,Percent Growth,NCI/ADR-RES; log10 conc −7.0 Molar,105%
same,Percent Growth,NCI/ADR-RES; log10 conc −8.0 Molar,97%
same,GI50,SNB-19; Homo sapiens,3.27 µM
same,CC50,SNB-19; [3],> 100 µM
same,TGI,SNB-19,>1.00E−04 Molar
same,Percent Growth,SNB-19; log10 conc −4.0 Molar,32%
same,Percent Growth,SNB-19; log10 conc −5.0 Molar,44%
same,Percent Growth,SNB-19; log10 conc −6.0 Molar,56%
same,Percent Growth,SNB-19; log10 conc −7.0 Molar,95%
same,Percent Growth,SNB-19; log10 conc −8.0 Molar,99%
same,TGI,MDA-N,>1.00E−04 Molar
same,GI50,MDA-N; Homo sapiens,1.17 µM
same,CC50,MDA-N; [3],> 100 µM
same,Percent Growth,MDA-N; log10 conc −4.0 Molar,7%
same,Percent Growth,MDA-N; log10 conc −5.0 Molar,23%
same,Percent Growth,MDA-N; log10 conc −6.0 Molar,52%
same,Percent Growth,MDA-N; log10 conc −7.0 Molar,94%
same,Percent Growth,MDA-N; log10 conc −8.0 Molar,99%
same,tumor growth,[1],significantly inhibited tumor growth
same,Body Weight Change,[2],107%
same,Liver Weight,[2],1.51 ± 0.08^c g
same,RBC,[2],8.1 ± 0.6 10^6/mm^3
same,WBC,[2],7.5 ± 0.8 10^3/mm^3
same,"WBC, RBC, BUN and creatine levels",[2],no differences were found
same,GI50,TK-10; Homo sapiens,51.3 µM
same,CC50,TK-10; [3],> 100 µM
same,TGI,TK-10,>1.00E−04 Molar
same,Percent Growth,TK-10; log10 conc −4.0 Molar,48%
same,Percent Growth,TK-10; log10 conc −5.0 Molar,54%
same,Percent Growth,TK-10; log10 conc −6.0 Molar,76%
same,Percent Growth,TK-10; log10 conc −7.0 Molar,93%
same,Percent Growth,TK-10; log10 conc −8.0 Molar,102%
same,TGI,ERVX; ERVX,>1.00E−04 Molar
same,Percent Growth,"ERVX; ERVX, log10 conc −4.0 Molar",23%
same,Percent Growth,"ERVX; ERVX, log10 conc −5.0 Molar",24%
same,Percent Growth,"ERVX; ERVX, log10 conc −6.0 Molar",51%
same,Percent Growth,"ERVX; ERVX, log10 conc −7.0 Molar",93%
same,Percent Growth,"ERVX; ERVX, log10 conc −8.0 Molar",85%
same,GI50,ERVX; Homo sapiens,1.13 µM
same,CC50,"ERVX; Homo sapiens, read-out: LC50",> 100 µM
same,GI50,RPMI-8226; Homo sapiens,0.522 µM
same,CC50,RPMI-8226; [3],> 100 µM
same,TGI,RPMI-8226,>1.00E−04 Molar
same,Percent Growth,RPMI-8226; log10 conc −4.0 Molar,12%
same,Percent Growth,RPMI-8226; log10 conc −5.0 Molar,36%
same,Percent Growth,RPMI-8226; log10 conc −6.0 Molar,46%
same,Percent Growth,RPMI-8226; log10 conc −7.0 Molar,61%
same,Percent Growth,RPMI-8226; log10 conc −8.0 Molar,74%
same,GI50,SF-295; Homo sapiens,0.442 µM
same,CC50,SF-295; [3],> 100 µM
same,TGI,SF-295,>1.00E−04 Molar
same,Percent Growth,SF-295; log10 conc −4.0 Molar,10%
same,Percent Growth,SF-295; log10 conc −5.0 Molar,20%
same,Percent Growth,SF-295; log10 conc −6.0 Molar,36%
